The supplement of paper PMC11451515

Test system: P12-Ichikawa
Experiment: cell viability relative to DMSO control; higher = less cytotoxic
Settings: 48 h
How it was run: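 Cells were incubated for 48 h at 37°C before CellTiter-Glo One luminescence was read. The cells were NOMO1 or SEM (500 cells/well) or P12-Ichikawa (1000 cells/well) leukemia cells, adapted for at least four passages in each medium and seeded in 1536-well plates (5 μl). Dosing used library compounds in DMSO applied by pin over 11 threefold points, 47 μM to 0.79 nM. Viability is the per-plate percentage of DMSO wells, with cell-free wells as background.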

[1] = HPLM + 10% dialyzed FBS, 0.000781 µM
[2] = HPLM + 10% dialyzed FBS, 0.00234 µM
[3] = HPLM + 10% dialyzed FBS, 0.00702 µM
[4] = HPLM + 10% dialyzed FBS, 0.0211 µM
[5] = HPLM + 10% dialyzed FBS, 0.0632 µM
[6] = HPLM + 10% dialyzed FBS, 0.19 µM
[7] = HPLM + 10% dialyzed FBS, 0.569 µM
[8] = HPLM + 10% dialyzed FBS, 1.71 µM
[9] = HPLM + 10% dialyzed FBS, 5.12 µM
[10] = HPLM + 10% dialyzed FBS, 15.4 µM
[11] = HPLM + 10% dialyzed FBS, 46.1 µM
[12] = RPMI 5 mM glucose + 10% FBS, 0.000781 µM
[13] = RPMI 5 mM glucose + 10% FBS, 0.00234 µM
[14] = RPMI 5 mM glucose + 10% FBS, 0.00702 µM
[15] = RPMI 5 mM glucose + 10% FBS, 0.0211 µM
[16] = RPMI 5 mM glucose + 10% FBS, 0.0632 µM
[17] = RPMI 5 mM glucose + 10% FBS, 0.19 µM
[18] = RPMI 5 mM glucose + 10% FBS, 0.569 µM
[19] = RPMI 5 mM glucose + 10% FBS, 1.71 µM
[20] = RPMI 5 mM glucose + 10% FBS, 5.12 µM
[21] = RPMI 5 mM glucose + 10% FBS, 15.4 µM
[22] = RPMI 5 mM glucose + 10% FBS, 46.1 µM
[23] = RPMI 5 mM glucose + 10% dialyzed FBS, 0.000781 µM
[24] = RPMI 5 mM glucose + 10% dialyzed FBS, 0.00234 µM
[25] = RPMI 5 mM glucose + 10% dialyzed FBS, 0.00702 µM
[26] = RPMI 5 mM glucose + 10% dialyzed FBS, 0.0211 µM
[27] = RPMI 5 mM glucose + 10% dialyzed FBS, 0.0632 µM
[28] = RPMI 5 mM glucose + 10% dialyzed FBS, 0.19 µM
[29] = RPMI 5 mM glucose + 10% dialyzed FBS, 0.569 µM
[30] = RPMI 5 mM glucose + 10% dialyzed FBS, 1.71 µM
[31] = RPMI 5 mM glucose + 10% dialyzed FBS, 5.12 µM
[32] = RPMI 5 mM glucose + 10% dialyzed FBS, 15.4 µM
[33] = RPMI 5 mM glucose + 10% dialyzed FBS, 46.1 µM

SMILES	cell viability [1] [%]	cell viability [2] [%]	cell viability [3] [%]	cell viability [4] [%]	cell viability [5] [%]	cell viability [6] [%]	cell viability [7] [%]	cell viability [8] [%]	cell viability [9] [%]	cell viability [10] [%]	cell viability [11] [%]	cell viability [12] [%]	cell viability [13] [%]	cell viability [14] [%]	cell viability [15] [%]	cell viability [16] [%]	cell viability [17] [%]	cell viability [18] [%]	cell viability [19] [%]	cell viability [20] [%]	cell viability [21] [%]	cell viability [22] [%]	cell viability [23] [%]	cell viability [24] [%]	cell viability [25] [%]	cell viability [26] [%]	cell viability [27] [%]	cell viability [28] [%]	cell viability [29] [%]	cell viability [30] [%]	cell viability [31] [%]	cell viability [32] [%]	cell viability [33] [%]
CN1\N=C(N)/C2=C[N]([C@@H]3O[C@H](CO[P](O)(O)=O)[C@@H](O)[C@H]3O)C4=C2C1=NC=N4	112	122	110	109	111	96.1	77.9	53	54	43.2	37.9	114	110	105	95.1	93.9	75.5	72	60.6	52.7	44.7	41.4	119	114	108	113	101	89.4	72.3	60.4	58.3	51	41.4
CCC(=C/[C@H](C)C/C=C/C(C)=C/[C@@H](C)C(=O)[C@@H](C)[C@H](O)[C@@H](C)C/C(C)=C/C(=O)O)/C=C/[C@@H]1OC(=O)C=C[C@@H]1C	110	114	116	117	118	115	129	109	6.55	4.69	7.83	106	119	111	127	121	118	114	96.1	5.34	3.16	8.25	99.9	107	109	115	107	111	108	91.1	5.62	4.96	13.8
CCCCCCCCCC(=O)N[C@@H](Cc1c[nH]c2ccccc12)C(=O)N[C@H](CC(N)=O)C(=O)N[C@@H](CC(=O)O)C(=O)N[C@@H]1C(=O)NCC(=O)N[C@@H](CCCN)C(=O)N[C@@H](CC(=O)O)C(=O)N[C@H](C)C(=O)N[C@@H](CC(=O)O)C(=O)NCC(=O)N[C@H](CO)C(=O)N[C@@H]([C@@H](C)CC(=O)O)C(=O)N[C@@H](CC(=O)c2ccccc2N)C(=O)O[C@@H]1C	116	122	112	123	121	122	126	123	122	124	129	106	111	113	121	131	127	126	129	125	125	4.51	106	111	110	113	133	116	117	126	121	131	115
c1ccc(CNc2nc(N3CCOc4ccccc43)nc3c2CCCC3)cc1	101	102	107	108	117	99.5	128	115	109	107	107	102	99.9	100	106	105	110	111	106	108	100	96.9	102	112	107	114	110	105	110	116	105	103	104
CC(O)(C#Cc1ccc2c(c1)N(c1nc(N)ncc1Cl)CC2)c1nccs1 (stereo not given)	111	123	121	71	116	123	126	121	117	116	96.8	107	118	123	79.2	127	115	121	127	126	115	74.3											
CC1(C)CNc2cc(NC(=O)c3cccnc3NCc3ccncc3)ccc21	120	115	125	121	128	116	117	118	112	110	101	127	117	122	116	115	106	119	117	111	105	107	121	124	128	121	120	120	123	112	113	113	96.1
O=C\1N(N\C=C1[N]2C=CN=N2)C3=NC=NC(=C3)N4CCOCC4	78.4	81.7	76.7	82.8	56.6	32.5	18.6	20.6	19.2	15.9	8.11	68.7	82.9	76.4	81	74.8	46.8	13.4	30.9	16.8	15.2	11.9	74.2	83.1	78.1	78.6	72.2	47.2	34.4	38.9	20.8	26.8	17
